Source: PMC6580366 (Journal of Medicinal Chemistry, 2019)
Like-named read-outs stand apart in the source and are kept apart here.

What was measured:
[1] = dog, 1 μM; cited from earlier work
[2] = tested on: BV2 microglia cell line; details: cited from earlier work
[3] = human, 1 μM; cited from earlier work
[4] = tested on: P-gp/Caco-2; details: 5 μM; cited from earlier work
[5] = tested on: CYP mRNA expression (CYP1A2, CYP2B, CYP3A); details: 0.5 to 50 μM, 48 h
[6] = tested on: BCRP/MDCK; details: 5 μM; cited from earlier work

CYP induction [5]: Negative (see Experimental Section)
Compound: CN1CCN(c2cc(-c3ccncc3)c(-c3ccc4ccccc4c3)nn2)CC1 [Compound 11, 6-(4-Methylpiperazin-1-yl)-3-(naphthalen-2-yl)-4-(pyridin-4-yl)pyridazine]
Hepatocyte stability T1/2 [1]: Human, T1/2 > 120 min; dog, T1/2 > 120 min (see ref ([14]))
cell proliferation, migration, or phagocytosis [2]: No effect on cell proliferation, migration, or phagocytosis
Hepatocyte stability T1/2 [3]: Human, T1/2 > 120 min; dog, T1/2 > 120 min (see ref ([14]))
Permeability Caco-2 [4]: highly permeable
Pump substrate status P-gp [4]: Not substrate
Permeability MDCK [6]: highly permeable
Pump substrate status BCRP [6]: Not substrate
